From ChEMBL document CHEMBL1140113, “Structural requirements for drug inhibition of the liver specific human organic cation transport protein 1” (J Med Chem, 2008)

Legend:
OCT1 (SLC22A1) [1] = biological target: T1, OCT1 (SLC22A1) (Homo sapiens, UniProt O15245); assay: in vitro
T1 sequence (O15245 whole entry): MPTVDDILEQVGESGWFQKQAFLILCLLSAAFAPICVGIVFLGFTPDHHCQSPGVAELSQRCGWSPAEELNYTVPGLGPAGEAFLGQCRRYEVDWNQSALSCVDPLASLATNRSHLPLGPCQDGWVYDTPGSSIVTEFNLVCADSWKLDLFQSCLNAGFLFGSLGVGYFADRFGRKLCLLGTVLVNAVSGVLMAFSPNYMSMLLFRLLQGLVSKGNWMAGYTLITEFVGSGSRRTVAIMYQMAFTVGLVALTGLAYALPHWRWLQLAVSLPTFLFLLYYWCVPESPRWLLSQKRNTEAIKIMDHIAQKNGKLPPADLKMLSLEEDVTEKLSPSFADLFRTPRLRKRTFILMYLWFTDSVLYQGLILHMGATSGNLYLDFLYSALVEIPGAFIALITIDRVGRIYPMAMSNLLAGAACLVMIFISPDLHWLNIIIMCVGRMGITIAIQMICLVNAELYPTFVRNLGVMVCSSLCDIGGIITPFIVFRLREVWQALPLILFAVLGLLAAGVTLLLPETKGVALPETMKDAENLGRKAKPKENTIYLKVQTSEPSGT

[2] = biological target: T2, Solute carrier family 22 member 1 (Homo sapiens, UniProt O15245); type: cell-based, HEK293
T2 sequence (O15245 whole entry): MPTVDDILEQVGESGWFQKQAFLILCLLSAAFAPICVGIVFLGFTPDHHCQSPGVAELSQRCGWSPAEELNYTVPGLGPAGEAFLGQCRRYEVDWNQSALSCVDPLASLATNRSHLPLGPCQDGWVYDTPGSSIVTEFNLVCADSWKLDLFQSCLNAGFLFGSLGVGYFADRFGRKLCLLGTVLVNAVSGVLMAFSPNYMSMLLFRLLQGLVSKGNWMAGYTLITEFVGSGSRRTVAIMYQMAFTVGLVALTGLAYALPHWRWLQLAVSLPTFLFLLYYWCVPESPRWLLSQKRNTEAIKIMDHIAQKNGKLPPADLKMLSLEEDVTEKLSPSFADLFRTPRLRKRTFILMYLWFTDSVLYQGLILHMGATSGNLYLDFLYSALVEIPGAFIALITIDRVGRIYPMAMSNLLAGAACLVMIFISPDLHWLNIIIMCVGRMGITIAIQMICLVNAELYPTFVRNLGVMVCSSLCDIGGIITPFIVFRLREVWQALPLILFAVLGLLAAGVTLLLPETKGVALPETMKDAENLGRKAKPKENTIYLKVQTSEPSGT

OCT1 (SLC22A1) [3] = biological target: T1, OCT1 (SLC22A1); assay: Inhibition of 4-(4-(dimethylamino)styryl)-N-methylpyridinium uptake at human OCT1 expressed in HEK293 cells at 10 uM by confocal microscopy; type: cell-based; settings: HEK293 cells that express human OCT1, probe 4-(4-(dimethylamino)styryl)-N-methylpyridinium
not read = substrate: CC[N+](CC)(CC)CC; assay: not read
[4] = HEK293 cells that express human OCT1, probe 4-(4-(dimethylamino)styryl)-N-methylpyridinium

Question: With Clc1cccc(Cl)c1N=C1NCCN1 [CLONIDINE] as the molecule, how does the inhibition at 100 µM (OCT1 (SLC22A1) [1]; hek293) read?
Answer: The inhibition at 100 µM was 65.4%.

Question: And the IC50 [2]?
Answer: The IC50 was 22.6 µM.

Question: What does the source list for CN(C)CCCN1c2ccccc2CCc2ccc(Cl)cc21 [CLOMIPRAMINE]?
Answer: inhibition at 100 µM (OCT1 (SLC22A1) [1]; [4]): 85.3%; IC50 [2]: 19.3 µM

Question: For CN1CCN(CCCN2c3ccccc3Sc3ccc(Cl)cc32)CC1 [PROCHLORPERAZINE], which inhibition at 100 µM (OCT1 (SLC22A1) [1]; [4]) is on record?
Answer: The inhibition at 100 µM was 66.5%.

Question: What about the IC50 [2] of the same molecule?
Answer: The IC50 was 49.6 µM.

Question: Which results are given for CN1CCC[C@@H]1CCO[C@](C)(c1ccccc1)c1ccc(Cl)cc1 [CLEMASTINE]?
Answer: inhibition at 100 µM (OCT1 (SLC22A1) [1]; [4]): 78.8%; IC50 [2]: 4.9 µM

Question: What does the source list for CC(CN1c2ccccc2Sc2ccccc21)N(C)C (centres undefined) [PROMETHAZINE]?
Answer: inhibition at 100 µM (OCT1 (SLC22A1) [1]; [4]): 71.1%; IC50 [2]: 35.1 µM

Question: For CN1CC[C@]23c4c5ccc(O)c4O[C@H]2[C@@H](O)C=C[C@H]3[C@H]1C5 [MORPHINE], which inhibition at 100 µM (OCT1 (SLC22A1) [1]; [4]) is on record?
Answer: Its inhibition at 100 µM is 67.9%.

Question: And the IC50 [2]?
Answer: The IC50 was 28 µM.

Question: Which results are given for C[N+]1(C)CCCC(OC(=O)C(O)(c2ccccc2)c2ccccc2)C1 (centres undefined) [MEPENZOLATE BROMIDE]?
Answer: inhibition at 100 µM (OCT1 (SLC22A1) [1]; [4]): 59.5%; IC50 [2]: 64.9 µM

Question: Which inhibition at 100 µM (OCT1 (SLC22A1) [1]; hek293) does the source give for CN(C)CCCN1c2ccccc2CCc2ccccc21 [IMIPRAMINE] here?
Answer: The inhibition at 100 µM was 82.8%.

Question: And the IC50 [2]?
Answer: The IC50 was 17.1 µM.

Question: CN(C)CCCN1c2ccccc2Sc2ccc(Cl)cc21 [CHLORPROMAZINE] was tested. Which inhibition at 100 µM (OCT1 (SLC22A1) [1]; [4]) did it give?
Answer: Its inhibition at 100 µM is 85.1%.

Question: What about the IC50 [2] of the same molecule?
Answer: Its IC50 is 27 µM.

Question: How did the inhibition at 100 µM (OCT1 (SLC22A1) [1]; [4]) turn out when CC(CN(C)C)CN1c2ccccc2CCc2ccccc21 (centres undefined) [TRIMIPRAMINE] was run?
Answer: Its inhibition at 100 µM is 77.2%.

Question: And the IC50 [2]?
Answer: The IC50 was 27.7 µM.

Question: CN(C)C(=O)C(CCN1CCC(O)(c2ccc(Cl)cc2)CC1)(c1ccccc1)c1ccccc1 [LOPERAMIDE] was tested. Which inhibition at 100 µM (OCT1 (SLC22A1) [1]; hek293) did it give?
Answer: The inhibition at 100 µM was 73.4%.

Question: What about the IC50 [2] of the same molecule?
Answer: The IC50 was 23.7 µM.

Question: How did the inhibition at 100 µM (OCT1 (SLC22A1) [1]; [4]) turn out when CC12CC3CC(C)(C1)CC(N)(C3)C2 [MEMANTINE] was run?
Answer: The inhibition at 100 µM was 58.6%.

Question: And the IC50 [2]?
Answer: Its IC50 is 27.2 µM.

Question: Which results are given for CCN(CC)CCNC(=O)c1cc(Cl)c(N)cc1OC [METOCLOPRAMIDE]?
Answer: inhibition at 100 µM (OCT1 (SLC22A1) [1]; [4]): 52.3%; IC50 [2]: 94.8 µM

Question: How did the inhibition at 100 µM (OCT1 (SLC22A1) [1]; [4]) turn out when CCCNCC(O)COc1ccccc1C(=O)CCc1ccccc1 (centres undefined) [PROPAFENONE] was run?
Answer: The inhibition at 100 µM was 83.8%.

Question: What about the IC50 [2] of the same molecule?
Answer: Its IC50 is 11.1 µM.

Question: With O=C(CCCN1CCC(O)(c2ccc(Cl)cc2)CC1)c1ccc(F)cc1 [HALOPERIDOL] as the molecule, how does the inhibition at 100 µM (OCT1 (SLC22A1) [1]; [4]) read?
Answer: The inhibition at 100 µM was 67.1%.

Question: What about the IC50 [2] of the same molecule?
Answer: The IC50 was 142 µM.

Question: CN(C)CC/C=C1/c2ccccc2Sc2ccc(Cl)cc21 [CHLORPROTHIXENE] was tested. Which inhibition at 100 µM (OCT1 (SLC22A1) [1]; [4]) did it give?
Answer: The inhibition at 100 µM was 65.4%.

Question: And the IC50 [2]?
Answer: The IC50 was 77.8 µM.

Question: How did the inhibition at 100 µM (OCT1 (SLC22A1) [1]; [4]) turn out when CC(COc1ccccc1)N(CCCl)Cc1ccccc1 (centres undefined) [PHENOXYBENZAMINE] was run?
Answer: The inhibition at 100 µM was 56.7%.

Question: What about the IC50 [2] of the same molecule?
Answer: The IC50 was 15.1 µM.

Question: What does the source list for CC(C)(Cc1c[nH]c2ccccc12)NCC(O)COc1ccccc1C#N (centres undefined) [BUCINDOLOL]?
Answer: inhibition at 100 µM (OCT1 (SLC22A1) [1]; [4]): 84.6%; IC50 [2]: 27.2 µM

Question: Which inhibition at 100 µM (OCT1 (SLC22A1) [1]; hek293) does the source give for C[C@]12CC[C@H]3[C@@H](CCC4=CC(=O)CC[C@@H]43)[C@@H]1CC[C@@H]2O [NANDROLONE] here?
Answer: The inhibition at 100 µM was 79.3%.

Question: What about the IC50 [2] of the same molecule?
Answer: The IC50 was 35.1 µM.

Question: CC(C)NCC(O)COc1cccc2ccccc12 (centres undefined) [PROPRANOLOL] was tested. Which inhibition at 100 µM (OCT1 (SLC22A1) [1]; [4]) did it give?
Answer: Its inhibition at 100 µM is 55.4%.

Question: And the IC50 [2]?
Answer: The IC50 was 63.2 µM.

Question: Which inhibition at 100 µM (OCT1 (SLC22A1) [1]; [4]) does the source give for COc1cccc(C2(O)CCCCC2CN(C)C)c1 (centres undefined) [TRAMADOL] here?
Answer: Its inhibition at 100 µM is 60.2%.

Question: And the IC50 [2]?
Answer: Its IC50 is 52.5 µM.

Question: For COc1cc2nc(N3CCN(C(=O)c4ccco4)CC3)nc(N)c2cc1OC [PRAZOSIN], which inhibition at 100 µM (OCT1 (SLC22A1) [1]; hek293) is on record?
Answer: The inhibition at 100 µM was 55.6%.

Question: And the inhibition at 10 µM (OCT1 (SLC22A1) [3])?
Answer: Its inhibition at 10 µM is 55.6%.

Question: What about the IC50 [2] of the same molecule?
Answer: Its IC50 is 9.9 µM.

Question: C=CCOc1ccccc1OCC(O)CNC(C)C (centres undefined) [OXPRENOLOL] was tested. Which inhibition at 100 µM (OCT1 (SLC22A1) [1]; hek293) did it give?
Answer: The inhibition at 100 µM was 61.5%.

Question: What about the IC50 [2] of the same molecule?
Answer: Its IC50 is 28.6 µM.

Question: How did the inhibition at 100 µM (OCT1 (SLC22A1) [1]; [4]) turn out when CN(C)CCC=C1c2ccccc2CCc2ccccc21 [AMITRIPTYLINE] was run?
Answer: Its inhibition at 100 µM is 78.5%.

Question: And the IC50 [2]?
Answer: Its IC50 is 16.9 µM.

Question: CCOc1cc(CC(=O)N[C@@H](CC(C)C)c2ccccc2N2CCCCC2)ccc1C(=O)O [REPAGLINIDE] was tested. Which inhibition at 100 µM (OCT1 (SLC22A1) [1]; [4]) did it give?
Answer: Its inhibition at 100 µM is 76.4%.

Question: And the IC50 [2]?
Answer: The IC50 was 9.2 µM.

Question: COc1cc2nc(N3CCN(C(=O)C4CCCO4)CC3)nc(N)c2cc1OC (centres undefined) [TERAZOSIN] was tested. Which inhibition at 100 µM (OCT1 (SLC22A1) [1]; [4]) did it give?
Answer: Its inhibition at 100 µM is 77%.

Question: And the IC50 [2]?
Answer: The IC50 was 23.7 µM.

B1: Solute carrier family 22 member 1 (Homo sapiens) (protein)
chain: MPTVDDILEQVGESGWFQKQAFLILCLLSAAFAPICVGIVFLGFTPDHHCQSPGVAELSQRCGWSPAEELNYTVPGLGPAGEAFLGQCRRYEVDWNQSALSCVDPLASLATNRSHLPLGPCQDGWVYDTPGSSIVTEFNLVCADSWKLDLFQSCLNAGFLFGSLGVGYFADRFGRKLCLLGTVLVNAVSGVLMAFSPNYMSMLLFRLLQGLVSKGNWMAGYTLITEFVGSGSRRTVAIMYQMAFTVGLVALTGLAYALPHWRWLQLAVSLPTFLFLLYYWCVPESPRWLLSQKRNTEAIKIMDHIAQKNGKLPPADLKMLSLEEDVTEKLSPSFADLFRTPRLRKRTFILMYLWFTDSVLYQGLILHMGATSGNLYLDFLYSALVEIPGAFIALITIDRVGRIYPMAMSNLLAGAACLVMIFISPDLHWLNIIIMCVGRMGITIAIQMICLVNAELYPTFVRNLGVMVCSSLCDIGGIITPFIVFRLREVWQALPLILFAVLGLLAAGVTLLLPETKGVALPETMKDAENLGRKAKPKENTIYLKVQTSEPSGT
Question: With B1 as the molecule, how does the Km (not read) read?
Answer: The Km was 2.32 µM.
